# Literature values as cited in patent US11529304B2, “Method for dyeing keratin material by means of a dyeing agent and an acidic posttreatment agent” (Henkel AG & Co. KGaA, priority 2018, dated 2022).
# Details: for solubility in water: 25° C.
solubility in water (in words) (at 25° C.),Molecule,solubility in water
–,"O=C([O-])c1c(Cl)c(Cl)c(Cl)c(Cl)c1-c1c2c(Br)cc(=O)c(Br)c-2oc2c(Br)c(O)cc(Br)c12.O=C([O-])c1c(Cl)c(Cl)c(Cl)c(Cl)c1-c1c2c(Br)cc(=O)c(Br)c-2oc2c(Br)c(O)cc(Br)c12.[Na+].[Na+] [Acid Red 92, disodium salt of 3,4,5,6-tetrachloro-2-(1,4,5,8-tetrabromo-6-hydroxy-3-oxoxanthen-9-yl)benzoic acid]",greater than 10 g/L
–,"mixture of the sodium salts of mono- and sisulfonic acids of 2-(2-quinolyl)-1H-indene-1,3(2H)-dione [Acid Yellow 3]",20 mg/mL
–,"Nc1cc(S(=O)(=O)[O-])cc2cc(S(=O)(=O)[O-])c(N=Nc3ccccc3)c(O)c12.[Na+].[Na+] [Acid Red 33, diantrium salt of 5-amino-4-hydroxy-3-(phenylazo)-naphthalene-2,7-disulphonate]",2.5 mg/mL
highly soluble,O=C([O-])C1=NN(c2ccc(S(=O)(=O)[O-])cc2)C(=O)C1N=Nc1ccc(S(=O)(=O)[O-])cc1.[Na+].[Na+].[Na+] (centres unmarked) [Acid Yellow 23],–
–,"O=S(=O)([O-])c1ccc(N=Nc2c(O)ccc3ccccc23)cc1.[Na+] [Acid Orange 7, sodium salt of 4-[(2-hydroxy-1-naphthyl)azo]benzene sulphonate]",more than 7 g/L
